What was measured:
locomotion = test: inhibition of locomotion in mice; format: in vivo, mice (male, OF-1); conditions: Mus musculus, po, minimum dose with significant inhibition, p.o., 1 hour after administration, read-out: Locomotor inhibition EDmin
Protocol: In particular, the compounds of formula I are useful as neuroleptic agents in the treatment of e.g. psychotic disorders such as schizophrenia, as indicated in standard tests, e.g. by an inhibition of locomotion in mice. In this test groups of 3 male mice (18-24 g, OF-1, Sandoz Basle) received 3.2, 10, 32, 100 and […]. of the test drug. 1 hour after drug administration the mice were observed individually and their locomotion compared with that of control. The locomotion of the animals was observed and the EDmin (the minimum dose at which significant inhibition was observed) determined.

[1] = target: T1, 3H-spiperone binding sites (Bos taurus, UniProt P20288); test: 3H-spiperone binding in calf brain striatal tissue; conditions: for IC50: calf striatal membranes, 0.1 nM 3H-spiperone, 5×10^-7 M cinanserin, pH 7.7, 40 min room temperature, read-out: Receptor binding IC50 3H-spiperone; for effect in the 3H-spiperone binding test compared with Clozapine: in words, versus Clozapine
T1 construct: fresh calf brain striatal tissue was homogenized; from tissue; host or cells: calf brain striatum, membranes
Protocol: The compounds of the invention bind further on ^3 H-spiperone binding sites in the brain [modified method of J. Leysen et al., Biochem. Pharmac. […] The test was performed as follows: fresh calf brain striatal tissue was homogenized in the 25 fold volume of tris buffer (pH 7.4, 50 mM, 120 mM sodium chloride) and centrifuged. The pellets were suspended in the 22 fold volume of tris buffer, incubated for 15 minutes at 37° C. and centrifuged. The pellets were suspended in the 300 fold volume of tris buffer. […] After incubation for 40 minutes at room temperature, the assay mixtures were rapidly filtered through Whatman GF/B filter, the filters washed twice with 5 ml of ice cold tris buffer and scintillation-counted.

[2] = test system: sleep/wake cycle (sleep phase II, paradoxical sleep); test: sleep/wake cycle in rats; format: in vivo
Protocol: Furthermore, the compounds on administration of 2-20 mg/kg p.o. to rats increase the sleep phase II and decrease the paradoxical sleep in the sleep/wake cycle carried out in accordance with the principles of H. Kleinlogel et al., European J. Pharmacol. 33, 159-163 (1975). […]

α1-receptors = test: 3H-Prazosin binding assay for α1-receptors in calf brain cortex tissue; conditions: calf brain cortex membranes, 0.3 nM 3H-Prazosin, pH 7.7, 40 min room temperature; read-out: IC50 (inhibition of specific 3H-Prazosin binding)
Protocol: The compounds of the invention are furthermore useful as anti-hypertensive agents, as indicated in standard tests, for example in the ^3 H-Prazosin binding assay for α1 -receptors [modified method of Greengrass P., et al., Eur. J. Pharmac. 55, 323-326 (1979)]. The test was performed as follows:
Fresh calf brain cortex tissue is homogenized in a 20 fold volume of Tris-HCl buffer (50 mM, pH 7.7), using a Polytron PT 20, and centrifuged at 30,000×g for 25 min. The pellets are resuspended in a 13 fold volume of the same buffer, incubated for 15 min at 37° C., and recentrifuged at 50,000×g for 11 min. The pellets of this centrifugation are frozen at -20° C. and resuspended in a 60 fold volume of the same buffer as above before use for the binding experiment. The composition of the assay mixtures (total volume=2 ml) is as follows: 50 mM Tris-HCl pH 7.7, membranes corresponding to 30 mg of original tissue weight, and 0.3 nM ^3 H-Prazosin. The assays for the definition of nonspecific binding additionally contain phentolamine at a concentration of 10 μM. To assess the potency of drugs in inhibiting specific ^3 H-Prazosin binding (difference between total and nonspecific binding), the test compounds are added to give 5 to 9 different concentrations between 1 nM and 10 μM, each in duplicate. […] The radioactivity of the filters is estimated by scintillation counting.

[3] = test system: blood pressure or heart rate; test: blood pressure / heart rate in anaesthetized normotonic rats; format: in vivo, female normotonic rats (Sprague-Dawley); conditions: Rattus norvegicus, iv, cumulative i.v. doses, by interpolation, read-out: ED75 (dose required to reduce the blood pressure or the heart rate to 75% of pretreatment values)
Protocol: In another test female normotonic rats (200-350 g, Sprague-Dawley, Suddeutsche Tierfarm, Tuttlingen, FRG) were anaesthetized with urethane (1.5-1.75 g/kg i.p. in 2 portions) and a tracheal cannula was inserted. Blood pressure and heart rate were recorded from the carotid artery by conventional methods. Test drugs were administered by the jugular or the femoral vein. Body temperature was maintained at 34° C. by means of a temperature regulator (Alfos MK-4) triggered by a thermistor on the animal. After adaptation, increasing doses of the test drug were injected i.v. to give the following cumulative doses: 3, 13, 43, 143, 343 and 1443 μg/kg. ED 75% is the dose required to reduce the blood pressure or the heart rate to 75% of pretreatment values. It was obtained through interpolation. The ED75 of the Example 3a compound is 524 μg/kg i.v.

T1 sequence (P20288 whole entry): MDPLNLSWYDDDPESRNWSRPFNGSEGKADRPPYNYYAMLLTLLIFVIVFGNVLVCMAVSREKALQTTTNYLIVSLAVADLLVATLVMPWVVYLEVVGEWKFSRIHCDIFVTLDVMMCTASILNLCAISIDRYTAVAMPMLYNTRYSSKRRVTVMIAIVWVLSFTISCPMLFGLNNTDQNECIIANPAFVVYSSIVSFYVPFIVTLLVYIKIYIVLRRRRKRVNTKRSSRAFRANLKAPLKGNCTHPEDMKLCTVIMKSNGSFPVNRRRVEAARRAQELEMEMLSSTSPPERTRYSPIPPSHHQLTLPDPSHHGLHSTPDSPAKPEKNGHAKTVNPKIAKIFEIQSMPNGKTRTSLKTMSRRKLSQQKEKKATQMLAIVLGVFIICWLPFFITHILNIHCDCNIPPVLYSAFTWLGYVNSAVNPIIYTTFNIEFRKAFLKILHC

SMILES | minimal effective dose (locomotion) [mg/kg] | IC50 [1] [nM] | effect in the 3H-spiperone binding test compared with Clozapine [1] | Sleep phase II ([2]; 3.2 mg/kg po) | paradoxical sleep ([2]; 3.2 mg/kg po) | IC50 (α1-receptors) [nM] | ED75 [3] [mg/kg] | Sleep phase II ([2]; 10 mg/kg po) | paradoxical sleep ([2]; 10 mg/kg po)
O=C(CCCN1CCN(c2ncc3ccccc3n2)CC1)c1ccc(F)cc1 [Example 1, 4-[4-(Quinazolin-2-yl)-1-piperazinyl]-1-(4-fluorophenyl)-1-butanone] | 3.3 | 344 | stronger effects in the ^3 H-spiperone binding test than Clozapine | 171 % of control | 92 % of control | – | – | – | –
Cc1nc(N2CCN(CCCC(=O)c3ccc(F)cc3)CC2)nc2ccccc12 [Example 3a] | – | – | – | – | – | 3.5 | 0.524 | – | –
O=C(CCCN1CCN(c2nc(-c3ccccc3)c3ccccc3n2)CC1)c1ccc(F)cc1 [Example 3e] | < 3.2 | 342 | stronger effects in the ^3 H-spiperone binding test than Clozapine | – | – | – | – | 607 % of control | 9 % of control
CN1CCN(C2=Nc3cc(Cl)ccc3Nc3ccccc32)CC1 [clozapine, reference compound] | 3.2 | – | – | – | – | – | – | 483 % of control | 26 % of control

Reference: US4588725A, “2-piperazinyl-quinazoline derivatives and pharmaceutical compositions containing them” (Sandoz Ltd., priority 1982, dated 1986)
